The text below walks through data of US11254668B2, “Pyrazolo[1,5-A]pyrazin-4-yl and related derivatives” (Pfizer Inc., priority 2017, dated 2022).

Each structure is given as a SMILES string.

Common to all, as to type: biochemical
Assay [1] deals with JAK1 (Homo sapiens (Human), UniProt P23458). As to the kind of experiment: JAK Caliper Enzyme Assay at 1 mM ATP, JAK1. The method, boiled down: (§1)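 Recombinant human kinase domains phosphorylated a fluorescent synthetic peptide at room temperature, with enzyme level and time tuned to 20% to 30% conversion; EDTA stop buffer ended reactions. Mobility-shift separation gave percent product from peak heights, normalised to DMSO and positive controls, and IC50s came from concentration–effect curves.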

In assay [2] the target is JAK2 (Homo sapiens (Human), UniProt O60674). Kind of assay: JAK Caliper Enzyme Assay at 1 mM ATP, JAK2. Summed up: (§2)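 Peptide phosphorylation by recombinant human kinase domain, 1 mM ATP, room temperature, EDTA-terminated, detected by microfluidic mobility shift; % effect normalised to DMSO baseline.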
Assay [3] addresses TYK2 (Homo sapiens (Human), UniProt P29597). Kind of assay: JAK Caliper Enzyme Assay at 1 mM ATP, TYK2. Summed up: as §2
Assay [4] concerns the target JAK3 (Homo sapiens (Human), UniProt P52333). As to the kind of experiment: JAK Caliper Enzyme Assay at 1 mM ATP, JAK3. Summed up: as §1

Chain of JAK3 (P52333 822-1111): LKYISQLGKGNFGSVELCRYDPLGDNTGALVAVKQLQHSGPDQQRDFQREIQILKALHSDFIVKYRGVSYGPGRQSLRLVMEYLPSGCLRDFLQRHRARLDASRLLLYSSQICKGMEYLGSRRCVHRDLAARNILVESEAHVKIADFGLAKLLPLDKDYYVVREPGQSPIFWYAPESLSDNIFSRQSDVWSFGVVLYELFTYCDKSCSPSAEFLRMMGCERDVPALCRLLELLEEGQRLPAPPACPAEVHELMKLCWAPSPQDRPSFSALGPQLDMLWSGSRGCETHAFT
Chain of JAK1 (P23458 875-1153): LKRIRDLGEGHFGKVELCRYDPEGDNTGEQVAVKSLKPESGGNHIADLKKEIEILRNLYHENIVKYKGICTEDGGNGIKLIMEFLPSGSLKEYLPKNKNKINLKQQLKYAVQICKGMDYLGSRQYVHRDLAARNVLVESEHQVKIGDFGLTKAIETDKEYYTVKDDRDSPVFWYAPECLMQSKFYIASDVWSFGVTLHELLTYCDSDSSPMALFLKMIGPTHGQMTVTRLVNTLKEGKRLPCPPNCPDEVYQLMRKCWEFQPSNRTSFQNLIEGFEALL
Chain of TYK2 (P29597 897-1176): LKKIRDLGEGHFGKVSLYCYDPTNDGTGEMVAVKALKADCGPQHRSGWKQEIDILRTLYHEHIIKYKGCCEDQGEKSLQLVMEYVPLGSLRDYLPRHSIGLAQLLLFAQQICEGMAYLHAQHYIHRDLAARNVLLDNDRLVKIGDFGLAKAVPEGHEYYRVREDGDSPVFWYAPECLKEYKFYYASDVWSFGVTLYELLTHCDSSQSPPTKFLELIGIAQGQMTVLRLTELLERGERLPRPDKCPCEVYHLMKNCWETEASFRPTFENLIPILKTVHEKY
Chain of JAK2 (O60674 849-1124): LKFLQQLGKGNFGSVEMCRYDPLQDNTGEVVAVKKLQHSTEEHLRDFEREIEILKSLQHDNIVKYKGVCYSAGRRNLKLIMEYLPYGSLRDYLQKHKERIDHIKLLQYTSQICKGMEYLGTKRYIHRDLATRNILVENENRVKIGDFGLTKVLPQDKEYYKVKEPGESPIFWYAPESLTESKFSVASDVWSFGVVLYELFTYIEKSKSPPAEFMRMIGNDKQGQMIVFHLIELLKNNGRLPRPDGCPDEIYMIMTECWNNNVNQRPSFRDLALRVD

Turning to `Cc1n[nH]cc1-c1cc2ncccc2c(-c2ccn([C@]3(CC#N)C[C@H](C#N)C3)n2)n1` [Example 90, cis-3-(cyanomethyl)-3-{3-[7-(3-methyl-1H-pyrazol-4-yl)-1,6-naphthyridin-5-yl]-1H-pyrazol-1-yl}cyclobutanecarbonitrile], the half-maximal inhibitory concentration (IC50) in assay [1] was 269 nM; in assay [2] it was 126 nM; in assay [3] it was 32 nM; in assay [4], more than 10000 nM.
The matching figures for `N#CC[C@]1(n2ccc(-c3nc(-c4cn[nH]c4CO)cc4ncccc34)n2)C[C@H](C#N)C1` [Example 91, trans-3-(cyanomethyl)-3-(3-{7-[5-(hydroxymethyl)-1H-pyrazol-4-yl]-1,6-naphthyridin-5-yl}-1H-pyrazol-1-yl)cyclobutanecarbonitrile]: 562 nM, 160 nM, 34 nM and more than 10000 nM.
The matching figures for `N#CC[C@]1(n2ccc(-c3nc(-c4cn[nH]c4CO)cc4ncccc34)n2)C[C@@H](C#N)C1` [Example 92, cis-3-(cyanomethyl)-3-(3-{7-[5-(hydroxymethyl)-1H-pyrazol-4-yl]-1,6-naphthyridin-5-yl}-1H-pyrazol-1-yl)cyclobutanecarbonitrile]: 63 nM, 22 nM, 9 nM and 1850 nM.
The matching figures for `CS(=O)(=O)N1CC(CC#N)(n2ccc(-c3nc(-c4c[nH]nc4N)cc4ncccc34)n2)C1` [Example 93, [3-{3-[7-(3-amino-1H-pyrazol-4-yl)-1,6-naphthyridin-5-yl]-1H-pyrazol-1-yl}-1-(methylsulfonyl)azetidin-3-yl]acetonitrile]: 121 nM, 46 nM, 7 nM and 5060 nM.
Take `CCN1CC(CC#N)(n2ccc(-c3nc(-c4c[nH]nc4N)cc4ncccc34)n2)C1` [Example 94, (3-{3-[7-(3-amino-1H-pyrazol-4-yl)-1,6-naphthyridin-5-yl]-1H-pyrazol-1-yl}-1-ethylazetidin-3-yl)acetonitrile]: the 50% inhibitory concentration (IC50) in assay [1] is 2100 nM; in assay [2], 940 nM; in assay [3], 94 nM; in assay [4] it was more than 10000 nM.
The matching figures for `CO[C@H]1C[C@](CC#N)(n2ccc(-c3nc(-c4c[nH]nc4N)cc4ncccc34)n2)C1` [Example 95, (trans-1-{3-[7-(3-amino-1H-pyrazol-4-yl)-1,6-naphthyridin-5-yl]-1H-pyrazol-1-yl}-3-methoxycyclobutyl)acetonitrile]: 1010 nM, 354 nM, 22 nM and more than 10000 nM.
The matching figures for `CO[C@H]1C[C@](CC#N)(n2ccc(-c3nc(-c4c[nH]nc4N)cc4ncccc34)n2)C1` [Example 96, (cis-1-{3-[7-(3-amino-1H-pyrazol-4-yl)-1,6-naphthyridin-5-yl]-1H-pyrazol-1-yl}-3-methoxycyclobutyl)acetonitrile]: 790 nM, 243 nM, 31 nM and more than 10000 nM.
The matching figures for `N#CC[C@]1(n2ccc(-c3nc(-c4c[nH]nc4N)cc4ncccc34)n2)C[C@@H](C#N)C1` [Example 97, cis-3-{3-[7-(3-amino-1H-pyrazol-4-yl)-1,6-naphthyridin-5-yl]-1H-pyrazol-1-yl}-3-(cyanomethyl)cyclobutanecarbonitrile]: 12 nM, 6 nM, 5 nM and 735 nM.
With `N#CC[C@]1(n2ccc(-c3nc(-c4c[nH]nc4N)cc4ncccc34)n2)C[C@H](C#N)C1` [Example 98, trans-3-{3-[7-(3-amino-1H-pyrazol-4-yl)-1,6-naphthyridin-5-yl]-1H-pyrazol-1-yl}-3-(cyanomethyl)cyclobutanecarbonitrile], the IC50 in assay [1] was determined as 73 nM; in assay [2], 33 nM; in assay [3], 8 nM; in assay [4], 5250 nM.
Consider `Cn1cc(-c2cc3ncccc3c(-c3ccn(C4(CC#N)CN(CC(F)(F)F)C4)n3)n2)cn1` [Example 99, [3-{3-[7-(1-methyl-1H-pyrazol-4-yl)-1,6-naphthyridin-5-yl]-1H-pyrazol-1-yl}-1-(2,2,2-trifluoroethyl)azetidin-3-yl]acetonitrile], for which the IC50 in assay [1] was 563 nM; in assay [2], 133 nM; in assay [3] it was 16 nM; in assay [4], more than 10000 nM.
Take `Cn1cc(-c2cc3ncccc3c(-c3ccn(C4(CC#N)CN(CC#N)C4)n3)n2)cn1` [Example 100, 2,2′-(3-{3-[7-(1-methyl-1H-pyrazol-4-yl)-1,6-naphthyridin-5-yl]-1H-pyrazol-1-yl}azetidine-1,3-diyl)diacetonitrile]: the 50% inhibitory concentration (IC50) in assay [1] was 425 nM; in assay [2], 71 nM; in assay [3] it was 14 nM; in assay [4], more than 10000 nM.
Take `Cn1cc(-c2cc3ncccc3c(-c3ccn([C@]4(CC#N)C[C@@H](C#N)C4)n3)n2)cn1` [Example 102, trans-3-(cyanomethyl)-3-{3-[7-(1-methyl-1H-pyrazol-4-yl)-1,6-naphthyridin-5-yl]-1H-pyrazol-1-yl}cyclobutanecarbonitrile]: the IC50 is 591 nM in assay [1], 90 nM in assay [2], 17 nM in assay [3] and 9610 nM in assay [4].
The matching figures for `Cn1cc(-c2cc3ncccc3c(-c3ccn(C4(CC#N)CN(S(C)(=O)=O)C4)n3)n2)cn1` [Example 104, [3-{3-[7-(1-methyl-1H-pyrazol-4-yl)-1,6-naphthyridin-5-yl]-1H-pyrazol-1-yl}-1-(methylsulfonyl)azetidin-3-yl]acetonitrile]: 1380 nM, 164 nM, 19 nM and more than 10000 nM.
As to `CCS(=O)(=O)N1CC(CC#N)(n2ccc(-c3nc(-c4cnn(C)c4)cc4ncccc34)n2)C1` [Example 105, [1-(ethylsulfonyl)-3-{3-[7-(1-methyl-1H-pyrazol-4-yl)-1,6-naphthyridin-5-yl]-1H-pyrazol-1-yl}azetidin-3-yl]acetonitrile], the IC50 came out at 1350 nM in assay [1], 174 nM in assay [2], 39 nM in assay [3] and 8090 nM in assay [4].
As for `CCCS(=O)(=O)N1CC(CC#N)(n2ccc(-c3nc(-c4cnn(C)c4)cc4ncccc34)n2)C1` [Example 106, [3-{3-[7-(1-methyl-1H-pyrazol-4-yl)-1,6-naphthyridin-5-yl]-1H-pyrazol-1-yl}-1-(propylsulfonyl)azetidin-3-yl]acetonitrile], the IC50 in assay [1] was 5400 nM; in assay [2], 895 nM; in assay [3], 138 nM; in assay [4], more than 10000 nM.
The matching figures for `Cn1cc(-c2cc3ncccc3c(-c3ccn(C4(CC#N)CN(S(=O)(=O)C5CC5)C4)n3)n2)cn1` [Example 107, [1-(cyclopropylsulfonyl)-3-{3-[7-(1-methyl-1H-pyrazol-4-yl)-1,6-naphthyridin-5-yl]-1H-pyrazol-1-yl}azetidin-3-yl]acetonitrile]: 1010 nM, 243 nM, 24 nM and more than 10000 nM.
The matching figures for `Cn1cc(-c2cc3ncccc3c(-c3ccn(C4(CC#N)CN(S(N)(=O)=O)C4)n3)n2)cn1` [Example 108, 3-(cyanomethyl)-3-{3-[7-(1-methyl-1H-pyrazol-4-yl)-1,6-naphthyridin-5-yl]-1H-pyrazol-1-yl}azetidine-1-sulfonamide]: 311 nM, 50 nM, 16 nM and 1590 nM.
The matching figures for `CNS(=O)(=O)N1CC(CC#N)(n2ccc(-c3nc(-c4cnn(C)c4)cc4ncccc34)n2)C1` [Example 109, 3-(cyanomethyl)-N-methyl-3-{3-[7-(1-methyl-1H-pyrazol-4-yl)-1,6-naphthyridin-5-yl]-1H-pyrazol-1-yl}azetidine-1-sulfonamide]: 2370 nM, 378 nM, 68 nM and more than 10000 nM.
As to `CO[C@H]1C[C@@](CC#N)(n2ccc(-c3nc(-c4cnn(C)c4)cc4ncccc34)n2)C1` [Example 110, (cis-3-methoxy-1-{3-[7-(1-methyl-1H-pyrazol-4-yl)-1,6-naphthyridin-5-yl]-1H-pyrazol-1-yl}cyclobutyl)acetonitrile], the IC50 was 4110 nM in assay [1], 558 nM in assay [2], 61 nM in assay [3] and more than 10000 nM in assay [4].
The matching figures for `CCn1cc(-c2cc3ncccc3c(-c3ccn(C4(CC#N)CN(CC(F)(F)F)C4)n3)n2)cn1` [Example 111, [3-{3-[7-(1-ethyl-1H-pyrazol-4-yl)-1,6-naphthyridin-5-yl]-1H-pyrazol-1-yl}-1-(2,2,2-trifluoroethyl)azetidin-3-yl]acetonitrile]: 458 nM, 139 nM, 27 nM and 9060 nM.
The matching figures for `CN(C)CCn1cc(-c2cc3ncccc3c(-c3ccn([C@]4(CC#N)C[C@H](C#N)C4)n3)n2)cn1` [Example 114, cis-3-(cyanomethyl)-3-[3-(7-{1-[2-(dimethylamino)ethyl]-1H-pyrazol-4-yl}-1,6-naphthyridin-5-yl)-1H-pyrazol-1-yl]cyclobutanecarbonitrile]: 404 nM, 41 nM, 46 nM and 1170 nM.

In general, IC50 refers to the concentration that inhibits the measured activity by half.
